In ChEMBL document CHEMBL1201862, “PubChem BioAssay data set” (2004):
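Where inhibition never reached the appropriate level, the endpoint shown equals the highest concentration tested. Otherwise, values were interpolated linearly from a five-concentration, 48-hour dose response in 96-well plates. At the GI50, growth is halved.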 Calls of active or inactive are those of the source. Cut-off read from the data, not from the text of the source: active = GI50 up to about 1.1 µM and inactive = higher.

What was measured:
Test in all cases: inhibition of tumour cell growth, NCI panel, 48 h
SK-OV-3 = tested on: SK-OV-3
KM12 = tested on: KM12
NCI-H522 = tested on: NCI-H522
CAKI-1 = tested on: CAKI-1
SK-MEL-2 = tested on: SK-MEL-2
IGROV-1 = tested on: IGROV-1
UACC-257 = tested on: UACC-257
A549 = tested on: A549
RXF 393 = tested on: RXF 393
HL-60 = tested on: HL-60
NCI-H23 = tested on: NCI-H23
OVCAR-5 = tested on: OVCAR-5
SK-MEL-28 = tested on: SK-MEL-28
HOP-62 = tested on: HOP-62
SF-268 = tested on: SF-268
SW-620 = tested on: SW-620
SF-295 = tested on: SF-295
CCRF-CEM = tested on: CCRF-CEM
M14 = tested on: M14

With `N/C(=N\O)N/N=C/c1cc2c(cc1Cl)OCO2` the GI50 (SK-OV-3) was 26.4 µM (inactive), the GI50 (KM12) was 29.5 µM (inactive) and the GI50 (NCI-H522) was 16 µM (inactive). The GI50 (CAKI-1) was 37.5 µM (inactive), the GI50 (SK-MEL-2) was 32.1 µM (inactive) and the GI50 (IGROV-1) was 43 µM (inactive). For the same compound, the GI50 (UACC-257) was 42.3 µM (inactive), the GI50 (A549) was 36.8 µM (inactive) and the GI50 (RXF 393) was 38.4 µM (inactive). For the same compound, the GI50 (HL-60) was 13.1 µM (inactive), the GI50 (NCI-H23) was 58.1 µM (inactive) and the GI50 (OVCAR-5) was 32.5 µM (inactive). The GI50 (SK-MEL-28) was 64.4 µM (inactive), the GI50 (HOP-62) was 36.3 µM (inactive) and the GI50 (SF-268) was 25.4 µM (inactive). The GI50 (SW-620) was 41.8 µM (inactive), the GI50 (SF-295) was 22.9 µM (inactive) and the GI50 (CCRF-CEM) was 27 µM (inactive).

With `CC1(CO)OC(n2cnc3c(N)ncnc32)C(O)C1O` (centres undefined) the GI50 (SK-OV-3) was > 100 µM (inactive), the GI50 (KM12) was > 100 µM (inactive) and the GI50 (NCI-H522) was > 100 µM (inactive). For the same compound, the GI50 (CAKI-1) was > 100 µM (inactive), the GI50 (SK-MEL-2) was > 100 µM (inactive) and the GI50 (IGROV-1) was > 100 µM (inactive). For the same compound, the GI50 (A549) was > 100 µM (inactive), the GI50 (RXF 393) was > 100 µM (inactive) and the GI50 (HL-60) was > 100 µM (inactive). For the same compound, the GI50 (NCI-H23) was > 100 µM (inactive), the GI50 (OVCAR-5) was > 100 µM (inactive) and the GI50 (SK-MEL-28) was > 100 µM (inactive). For the same compound, the GI50 (M14) was > 100 µM (inactive), the GI50 (HOP-62) was > 100 µM (inactive) and the GI50 (SF-268) was > 100 µM (inactive). For the same compound, the GI50 (SW-620) was > 100 µM (inactive), the GI50 (SF-295) was > 100 µM (inactive) and the GI50 (CCRF-CEM) was > 100 µM (inactive).

In the case of `COc1ccc2c(c1)OC[C@@H]1c3cc(O)c(OCc4ccccc4)cc3O[C@H]21`, the GI50 (SK-OV-3) is reported as 17.3 µM (inactive), the GI50 (KM12) is reported as 30.2 µM (inactive) and the GI50 (NCI-H522) is reported as 13.5 µM (inactive). For the same compound, the GI50 (CAKI-1) was 24.1 µM (inactive), the GI50 (SK-MEL-2) was 17.3 µM (inactive) and the GI50 (IGROV-1) was 26.5 µM (inactive). The GI50 (UACC-257) was 17.9 µM (inactive), the GI50 (A549) was 26.2 µM (inactive) and the GI50 (RXF 393) was 25.9 µM (inactive). For the same compound, the GI50 (HL-60) was 16.8 µM (inactive), the GI50 (NCI-H23) was 16.4 µM (inactive) and the GI50 (OVCAR-5) was 66.5 µM (inactive). The GI50 (SK-MEL-28) was 32.9 µM (inactive), the GI50 (M14) was 27.9 µM (inactive) and the GI50 (HOP-62) was 48 µM (inactive). For the same compound, the GI50 (SF-268) was 28.3 µM (inactive), the GI50 (SW-620) was 29.6 µM (inactive) and the GI50 (SF-295) was 28.8 µM (inactive). The GI50 (CCRF-CEM) was 34.3 µM (inactive).

With `Clc1cc(Cl)cc(C2SCc3nc4ccccc4n32)c1` (centres undefined) the GI50 (SK-OV-3) was 22.8 µM (inactive), the GI50 (KM12) was 13.6 µM (inactive) and the GI50 (NCI-H522) was 14.3 µM (inactive). For the same compound, the GI50 (CAKI-1) was 14.9 µM (inactive), the GI50 (SK-MEL-2) was 17.6 µM (inactive) and the GI50 (UACC-257) was 15.2 µM (inactive). The GI50 (A549) was 19.6 µM (inactive), the GI50 (RXF 393) was 14.6 µM (inactive) and the GI50 (HL-60) was 4.31 µM (inactive). The GI50 (NCI-H23) was 17 µM (inactive), the GI50 (OVCAR-5) was 18.1 µM (inactive) and the GI50 (SK-MEL-28) was 13.8 µM (inactive). The GI50 (SF-268) was 20.4 µM (inactive), the GI50 (SW-620) was 11 µM (inactive) and the GI50 (SF-295) was 14.5 µM (inactive). For the same compound, the GI50 (CCRF-CEM) was 9.79 µM (inactive).

For `CN(C)CC(CO)(CN(C)C)CN(C)C`, the GI50 (SK-OV-3) was > 100 µM (inactive), the GI50 (KM12) was > 100 µM (inactive) and the GI50 (NCI-H522) was > 100 µM (inactive). For the same compound, the GI50 (CAKI-1) was > 100 µM (inactive), the GI50 (IGROV-1) was > 100 µM (inactive) and the GI50 (UACC-257) was > 100 µM (inactive). The GI50 (A549) was > 100 µM (inactive), the GI50 (RXF 393) was > 100 µM (inactive) and the GI50 (HL-60) was > 100 µM (inactive). The GI50 (NCI-H23) was > 100 µM (inactive), the GI50 (OVCAR-5) was > 100 µM (inactive) and the GI50 (SK-MEL-28) was > 100 µM (inactive). The GI50 (M14) was > 100 µM (inactive), the GI50 (HOP-62) was > 100 µM (inactive) and the GI50 (SF-268) was > 100 µM (inactive). For the same compound, the GI50 (SW-620) was > 100 µM (inactive), the GI50 (SF-295) was > 100 µM (inactive) and the GI50 (CCRF-CEM) was > 100 µM (inactive).

In the case of `Cn1nc(-c2ccccc2)c(C(=O)/C=C/c2ccccc2)c(N2CCCC2)c1=O`, the GI50 (SK-OV-3) is reported as 22.7 µM (inactive), the GI50 (NCI-H522) is reported as 4.83 µM (inactive) and the GI50 (IGROV-1) is reported as 21.2 µM (inactive). For the same compound, the GI50 (A549) was 19.9 µM (inactive), the GI50 (RXF 393) was 6.59 µM (inactive) and the GI50 (HL-60) was 4.34 µM (inactive). For the same compound, the GI50 (NCI-H23) was 10.4 µM (inactive), the GI50 (SK-MEL-28) was 16.6 µM (inactive) and the GI50 (M14) was 15.7 µM (inactive). For the same compound, the GI50 (HOP-62) was 11.9 µM (inactive), the GI50 (SF-268) was 13.7 µM (inactive) and the GI50 (SW-620) was 17.9 µM (inactive). The GI50 (CCRF-CEM) was 7.8 µM (inactive).

In the case of `Cc1ccc(S(=O)(=O)OCCOCCOCCOCCOCCOS(=O)(=O)c2ccc(C)cc2)cc1`, the GI50 (SK-OV-3) is reported as > 100 µM (inactive), the GI50 (KM12) is reported as 55.7 µM (inactive) and the GI50 (NCI-H522) is reported as 23.7 µM (inactive). For the same compound, the GI50 (CAKI-1) was 47.1 µM (inactive), the GI50 (SK-MEL-2) was 41.5 µM (inactive) and the GI50 (IGROV-1) was 79.8 µM (inactive). The GI50 (UACC-257) was 25 µM (inactive), the GI50 (A549) was 69.8 µM (inactive) and the GI50 (RXF 393) was > 100 µM (inactive). The GI50 (NCI-H23) was 21.3 µM (inactive), the GI50 (OVCAR-5) was > 100 µM (inactive) and the GI50 (SK-MEL-28) was > 100 µM (inactive). For the same compound, the GI50 (M14) was 45.1 µM (inactive), the GI50 (HOP-62) was 30.1 µM (inactive) and the GI50 (SF-268) was > 100 µM (inactive). For the same compound, the GI50 (SW-620) was 91.2 µM (inactive), the GI50 (SF-295) was 50.7 µM (inactive) and the GI50 (CCRF-CEM) was 21.4 µM (inactive).

`CCN(CC)CCn1nc2c3c(c(NCCN)ccc31)Sc1cc(O)ccc1-2` was tested, and the GI50 (SK-OV-3) was 1.25 µM (inactive), the GI50 (KM12) was 0.615 µM (active) and the GI50 (NCI-H522) was 0.175 µM (active). The GI50 (CAKI-1) was 0.516 µM (active), the GI50 (SK-MEL-2) was 1.28 µM (inactive) and the GI50 (IGROV-1) was 0.505 µM (active). For the same compound, the GI50 (UACC-257) was 1.84 µM (inactive), the GI50 (A549) was 0.176 µM (active) and the GI50 (RXF 393) was 1.14 µM (inactive). The GI50 (HL-60) was 0.0962 µM (active), the GI50 (NCI-H23) was 0.451 µM (active) and the GI50 (OVCAR-5) was 1.56 µM (inactive). For the same compound, the GI50 (SK-MEL-28) was 1.38 µM (inactive), the GI50 (M14) was 0.455 µM (active) and the GI50 (HOP-62) was 0.416 µM (active). The GI50 (SF-268) was 0.493 µM (active), the GI50 (SW-620) was 0.351 µM (active) and the GI50 (SF-295) was 0.861 µM (active). The GI50 (CCRF-CEM) was 0.166 µM (active).
